Measurements reported in US20170269060A1, “Assays and Compounds to Treat Kidney Diseases” (Rush University Medical Center, priority 2014, published 2017).

Tests used:
[1] = test system: murine podocytes; assay: Primary HCS screen of chemical library, cell roundness Z score, PAN injury; format: cell-based; conditions: PAN 16 μg/ml, 48 hours; Z-score cutoff ≦−1.28
Method: Screening of chemical libraries, which include the MicroSource Spectrum collection (MicroSource Discovery Systems, Inc., Gaylorsville, C T, 2000 compounds) and Enzo kinase inhibitor array (Enzo Life Sciences, Farmingdale, N.Y., 80 compounds), Sigma, Millipore, Tocris and Cayman (41 compounds), was performed using multiwall plates. Podocytes cultured in multiwall plates were used in these assays. 100 nL of each compound, also in multiwall plates (at a stock concentration of 1 mM to 10 mM in DMSO), was added to each well of a podocyte containing multiwall plate using the Perkin Elmer Janus automated workstation with the help of a 96-pin or 384-pin pin tool (100 nL, PerkinElmer). The compounds were added in the absence or presence of podocyte damaging agent (such as PAN). The plates containing the compounds were subsequently placed in tissue culture incubators and cells were further cultured for 1-72 h at 37° C. A compound that decreased PAN damaged was identified by quantifying the changes in at least one of the following parameters: cell morphology, cell roundedness, F-actin intensity, number of focal adhesions, intensity or size of focal adhesions, length of actin fibers, size of actin fibers, percent damaged or percent healthy cells etc. In certain cases, hits were validated by acquiring a fresh batch of the compound from commercial sources and performing dose-response curves. Images from the primary screen were quantified for cell morphology parameter and were normalized by calculating z-score (z) for each test compound, to compensate for any plate-to-plate variability. (Wiggins, Kidney International, 2007) z was calculated for each of the test compounds using the formula: […]
where x is the raw measured value with each compound, μ is the mean of all measured raw values across a plate and a is the standard deviation of the measurements. A z-score of […], corresponding to 90% population under the curve, was used as a cutoff to identify primary hits in the assay.
To identify small molecules that protect podocytes from PAN injury, a chemical library of 2121 pharmacologically active compounds was screened. Podocytes were treated with compounds from the chemical library in the presence of PAN (16 μg/ml) at 37° C. for 48 hours. The assay plates also contained eight positive (PAN and MZR treatment) and eight negative (PAN treatment) control wells. Wells were imaged and analyzed, and the mean cell roundness per cell was calculated for each well. Mean cell roundness was normalized using plate-based positive and negative controls, and a Z score for the change in cell morphology on treatment with each compound (SD away from the plate mean) was calculated. The results from the screen are presented as a graph in FIG. 7A. Wells with nuclei counts. […] Primary hits (compounds that protected podocytes from PAN damage) were identified from the assay using a Z-score cutoff of ≦−1.28 corresponding to the 10% population on one side of the bell-shaped curve. […] Given that our assay is image based, the images from all initial hits were visually inspected manually, which eliminated 10 compounds as nonhits. […] The identified list of primary hit compounds included three Rho kinase inhibitors (Y27632, GSK 429286, and Thiazovivin) and a p38 kinase inhibitor (SB 203580). […] Next, to validate the hit compounds identified from our screen, selected primary hits were reanalyzed using independently obtained powder forms of the compounds.

[2] = target: T1, human β1 integrin (Homo sapiens, UniProt P05556); assay: Active β1 integrin (antibody 12G10) in PAN-treated human podocytes; format: cell-based; conditions: PAN treatment (FIG. 9D)
T1 construct: endogenous in cells; host or cells: conditionally immortalized human podocytes (Saleem et al. 2002)
Description: FIG. 9A-9E. An An β1-integrin agonist pyrintegrin (pyr) protects podocytes from damage. (A) The published chemical structure of pyr. (Xu et al. PNAS, 2010.) (B-D) Pyr protects podocytes from PAN-induced loss of F-actin fibers and focal adhesions and enhances active β1-integrin levels. (B) Graphs showing the effect of pyr on the number of F-actin fibers per cell and the number of vinculin spots per cell under each treatment condition. Data shown are means 6 SEMs per cell from three replicate wells (n=500-1000 cells per well). **P, 0.01; ***P, 0.001; ****P, 0.001. (C) Representative fluorescence images of murine podocytes after various treatments and after staining with phalloidin and antiactive β1 antibody. […] (D) Representative fluorescence images of human podocytes after various treatments as shown. […] Representative images (left panel) and a bar graph (right panel) showing confocal microscopy-based quantitation of the number of migrating podocytes in a scratch wound-healing assay Lines represent the wound margins at the beginning of the experiment (0 hours). […]
Integrin-α3β1 is highly expressed in podocytes and primarily binds to the GBM-expressed ligand laminin, thereby mediating stable adhesion of podocytes to the GBM. […] Given that pyrintegrin affects integrin-β1, (Xu et al., PNAS, 2010.) we quantified the level of β1 in treated cells. […]

T1 sequence (P05556 21-798): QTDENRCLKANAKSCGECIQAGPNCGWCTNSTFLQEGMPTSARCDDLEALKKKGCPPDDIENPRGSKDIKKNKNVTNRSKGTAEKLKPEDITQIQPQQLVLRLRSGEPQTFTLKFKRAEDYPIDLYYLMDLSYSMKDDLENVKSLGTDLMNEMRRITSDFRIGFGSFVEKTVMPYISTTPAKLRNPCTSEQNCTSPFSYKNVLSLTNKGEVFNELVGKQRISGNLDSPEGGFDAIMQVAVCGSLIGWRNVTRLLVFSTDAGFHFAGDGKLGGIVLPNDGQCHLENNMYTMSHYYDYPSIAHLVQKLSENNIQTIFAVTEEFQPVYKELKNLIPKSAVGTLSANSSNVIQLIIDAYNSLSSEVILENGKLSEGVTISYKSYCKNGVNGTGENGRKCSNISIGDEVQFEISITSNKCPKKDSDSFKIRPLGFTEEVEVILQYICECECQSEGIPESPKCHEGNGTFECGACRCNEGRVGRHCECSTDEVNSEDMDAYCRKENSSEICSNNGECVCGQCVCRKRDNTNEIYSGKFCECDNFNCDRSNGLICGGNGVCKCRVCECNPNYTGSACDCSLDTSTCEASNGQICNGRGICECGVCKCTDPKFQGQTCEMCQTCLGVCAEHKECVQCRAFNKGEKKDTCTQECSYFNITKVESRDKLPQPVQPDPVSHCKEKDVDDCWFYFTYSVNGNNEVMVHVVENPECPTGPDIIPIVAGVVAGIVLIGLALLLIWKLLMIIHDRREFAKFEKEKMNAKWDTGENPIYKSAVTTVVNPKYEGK
T1 sequence (P26006 33-1051 partner): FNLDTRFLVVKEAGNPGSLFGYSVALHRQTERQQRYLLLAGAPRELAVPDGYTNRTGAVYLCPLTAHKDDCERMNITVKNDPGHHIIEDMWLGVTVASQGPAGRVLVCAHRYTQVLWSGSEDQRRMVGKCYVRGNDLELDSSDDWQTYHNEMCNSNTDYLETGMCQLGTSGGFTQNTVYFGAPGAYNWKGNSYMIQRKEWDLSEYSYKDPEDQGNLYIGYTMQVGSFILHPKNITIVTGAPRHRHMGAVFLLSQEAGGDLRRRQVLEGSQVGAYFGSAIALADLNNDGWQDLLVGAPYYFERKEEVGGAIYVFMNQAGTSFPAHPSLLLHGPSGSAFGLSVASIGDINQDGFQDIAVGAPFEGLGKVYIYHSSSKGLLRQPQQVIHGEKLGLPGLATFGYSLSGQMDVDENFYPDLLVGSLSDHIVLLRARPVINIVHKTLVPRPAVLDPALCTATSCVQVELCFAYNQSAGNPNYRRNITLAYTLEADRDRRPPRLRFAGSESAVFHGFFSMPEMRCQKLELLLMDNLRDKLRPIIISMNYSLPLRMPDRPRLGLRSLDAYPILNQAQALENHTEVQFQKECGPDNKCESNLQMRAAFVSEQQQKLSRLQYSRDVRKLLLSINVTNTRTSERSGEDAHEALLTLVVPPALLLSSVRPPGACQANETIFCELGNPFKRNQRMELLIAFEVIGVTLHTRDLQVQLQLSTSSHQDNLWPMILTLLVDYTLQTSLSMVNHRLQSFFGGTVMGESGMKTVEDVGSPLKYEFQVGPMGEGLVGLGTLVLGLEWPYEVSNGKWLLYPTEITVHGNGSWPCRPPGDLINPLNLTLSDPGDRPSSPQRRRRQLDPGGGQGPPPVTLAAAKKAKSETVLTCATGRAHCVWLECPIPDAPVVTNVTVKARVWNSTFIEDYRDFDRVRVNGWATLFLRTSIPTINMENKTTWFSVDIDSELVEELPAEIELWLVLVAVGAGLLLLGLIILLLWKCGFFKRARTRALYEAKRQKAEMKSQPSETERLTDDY

## O=S(=O)(NCC1CC1)c1ccc(Nc2nccc(N3CCCc4cc(O)ccc43)n2)cc1 [Pyrintegrin]
[1]
  primary hit (protects podocytes from PAN damage): top primary hit
[2]
  level of active β1 integrin in human podocytes (antibody 12G10): rescued
